These results are taken from patent US8338465B2, “Cyclic carboxylic acid rhodanine derivatives for the treatment and prevention of tuberculosis” (priority 2006, dated 2012).

For this assay, the target named is T1, dihydrolipoamide acyltransferase (DlaT) (Mycobacterium tuberculosis, UniProt P9WIS7).
T1 sequence (P9WIS7 1-553): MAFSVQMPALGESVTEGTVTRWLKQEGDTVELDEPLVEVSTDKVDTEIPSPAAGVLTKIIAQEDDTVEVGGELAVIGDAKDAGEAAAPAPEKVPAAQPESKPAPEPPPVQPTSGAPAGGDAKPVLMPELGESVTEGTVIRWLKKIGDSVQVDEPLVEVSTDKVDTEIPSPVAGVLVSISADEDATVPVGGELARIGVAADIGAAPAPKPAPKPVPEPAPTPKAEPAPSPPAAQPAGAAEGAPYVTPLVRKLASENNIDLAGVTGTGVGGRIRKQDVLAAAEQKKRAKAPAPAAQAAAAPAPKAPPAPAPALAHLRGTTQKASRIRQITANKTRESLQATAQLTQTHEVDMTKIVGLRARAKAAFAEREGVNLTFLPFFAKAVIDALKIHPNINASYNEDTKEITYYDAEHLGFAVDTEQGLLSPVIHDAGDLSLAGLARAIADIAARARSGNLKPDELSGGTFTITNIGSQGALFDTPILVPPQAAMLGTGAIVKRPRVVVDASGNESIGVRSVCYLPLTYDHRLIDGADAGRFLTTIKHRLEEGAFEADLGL
As to the kind of experiment: DlaT inhibition (Dlat IC50); DTNB peroxidase assay with Lpd, DlaT and AhpD. The class given is biochemical. Conditions: Table 1, Compounds A1 to A294; read-out: Dlat IC50 category.
What is called IC50 is the concentration at which inhibition is half-maximal. For the compound `CSc1ccccc1-c1ccc(C=C2SC(=S)N(c3cccc(C(=O)O)c3)C2=O)o1` [Compound A185], the IC50 was less than 10 µM.
The value for `CSc1ccccc1-c1ccc(C=C2SC(=S)N(c3cc(C(=O)O)ccc3F)C2=O)o1` [Compound A186] was less than 10 µM; that for `Cc1ccccc1-c1ccc(C=C2SC(=S)N(c3cccc(C(=O)O)c3)C2=O)s1` [Compound A187] was 11 to 40 µM; that for `Cc1ccccc1-c1ccc(C=C2SC(=S)N(c3cc(C(=O)O)ccc3F)C2=O)s1` [Compound A188] was less than 10 µM.
Regarding `O=C(O)c1cccc(N2C(=O)C(=Cc3ccc(-c4ccccc4Cl)s3)SC2=S)c1` [Compound A189], the IC50 was less than 10 µM.
The value for `O=C(O)c1ccc(F)c(N2C(=O)C(=Cc3ccc(-c4ccccc4Cl)s3)SC2=S)c1` [Compound A190] was less than 10 µM; that for `CN(C)c1ccc(-c2ccc(C=C3SC(=S)N(c4cc(C(=O)O)ccc4F)C3=O)o2)cc1` [Compound A191] was less than 10 µM.
The same measure for `O=C(O)c1cccc(N2C(=O)C(=Cc3ccccc3-c3ccccc3OCc3ccccc3Cl)SC2=S)c1` [Compound A192]: 11 to 40 µM.
The same measure for `O=C(O)c1cccc(N2C(=O)C(=Cc3ccc(-c4ccccc4Oc4ccccc4)o3)SC2=S)c1` [Compound A193]: less than 10 µM; for `O=C(O)c1ccc(F)c(N2C(=O)C(=Cc3ccc(-c4ccccc4Oc4ccccc4)o3)SC2=S)c1` [Compound A194]: less than 10 µM.
Take `O=C(O)c1cccc(N2C(=O)C(=Cc3ccc(-c4ccccc4F)s3)SC2=S)c1` [Compound A195]: the IC50 fell in the range of 11 to 40 µM.
The same measure for `O=C(O)c1cccc(N2C(=O)C(=Cc3ccc(-c4ccccc4F)s3)SC2=S)c1` [Compound A196]: less than 10 µM.
Take `O=C(O)c1ccc(F)c(N2C(=O)C(=Cc3ccccc3-c3ccccc3OCc3ccccc3Cl)SC2=S)c1` [Compound A197]: the IC50 is less than 10 µM.
Regarding `Cc1cccc(C)c1-c1ccc(C=C2SC(=S)N(c3cccc(C(=O)O)c3)C2=O)o1` [Compound A198], the IC50 was less than 10 µM.
The same measure for `O=C(O)c1cccc(N2C(=O)C(=Cc3ccc(-c4ccc(C(F)(F)F)cc4)o3)SC2=S)c1` [Compound A200]: less than 10 µM; for `O=C(O)c1ccc(F)c(N2C(=O)C(=Cc3ccc(-c4ccc(C(F)(F)F)cc4)o3)SC2=S)c1` [Compound A201]: less than 10 µM; for `O=C(O)c1cccc(N2C(=O)C(=Cc3ccc(-c4cccc(-c5ccccc5)c4)o3)SC2=S)c1` [Compound A202]: less than 10 µM.
For the compound `O=C(O)c1ccc(F)c(N2C(=O)C(=Cc3ccc(-c4cccc(-c5ccccc5)c4)o3)SC2=S)c1` [Compound A203], the IC50 is less than 10 µM.
As to `CC(=O)Nc1ccc(-c2ccc(C=C3SC(=S)N(c4cccc(C(=O)O)c4)C3=O)o2)cc1` [Compound A204], the IC50 was less than 10 µM.
`CC(=O)Nc1ccc(-c2ccc(C=C3SC(=S)N(c4cc(C(=O)O)ccc4F)C3=O)o2)cc1` [Compound A205]: the IC50 was less than 10 µM.
The value for `CC(=O)c1ccc(-c2ccc(C=C3SC(=S)N(c4cccc(C(=O)O)c4)C3=O)o2)cc1` [Compound A206] was less than 10 µM; that for `CC(=O)c1ccc(-c2ccc(C=C3SC(=S)N(c4cc(C(=O)O)ccc4F)C3=O)o2)cc1` [Compound A207] was less than 10 µM; that for `O=C(O)c1ccc(F)c(N2C(=O)C(=Cc3ccc(-c4ccccc4F)o3)SC2=S)c1` [Compound A208] was 11 to 40 µM.
The same measure for `O=C(O)c1cccc(N2C(=O)C(=Cc3ccc(-c4cccc(CO)c4)o3)SC2=S)c1` [Compound A209]: less than 10 µM; for `O=C(O)c1ccc(F)c(N2C(=O)C(=Cc3ccc(-c4cccc(CO)c4)o3)SC2=S)c1` [Compound A210]: less than 10 µM.
The same measure for `O=C(O)c1cccc(N2C(=O)C(=Cc3ccc(-c4ccc(F)cc4)o3)SC2=S)c1` [Compound A211]: less than 10 µM.
Take `O=C(O)c1ccc(F)c(N2C(=O)C(=Cc3ccc(-c4ccc(F)cc4)o3)SC2=S)c1` [Compound A212]: the IC50 is less than 10 µM.
`CCOc1ccc(-c2ccc(C=C3SC(=S)N(c4cccc(C(=O)O)c4)C3=O)o2)cc1` [Compound A217]: the IC50 lay within 11 to 40 µM.
The same measure for `CCOc1ccc(-c2ccc(C=C3SC(=S)N(c4cc(C(=O)O)ccc4F)C3=O)o2)cc1` [Compound A218]: less than 10 µM.
For the compound `O=C(O)c1cccc(N2C(=O)C(=Cc3ccc(-c4ccc(OCc5ccccc5)cc4)o3)SC2=S)c1` [Compound A219], the IC50 is 11 to 40 µM.
The value for `O=C(O)c1ccc(F)c(N2C(=O)C(=Cc3ccc(-c4ccc(OCc5ccccc5)cc4)o3)SC2=S)c1` [Compound A220] was 11 to 40 µM; that for `O=C(O)c1cc(N2C(=O)C(=Cc3ccc(-c4ccccc4Cl)o3)SC2=S)cc(C(F)(F)F)c1` [Compound A221] was 11 to 40 µM.
The value for `O=C(O)c1cc(N2C(=O)C(=Cc3ccc(-c4ccccc4F)o3)SC2=S)cc(C(F)(F)F)c1` [Compound A222] was less than 10 µM; that for `O=C(O)c1cc(N2C(=O)C(=Cc3ccc(-c4ccc(Cl)cc4)o3)SC2=S)cc(C(F)(F)F)c1` [Compound A223] was 11 to 40 µM; that for `Cc1ccc(-c2ccc(C=C3SC(=S)N(c4cc(C(=O)O)cc(C(F)(F)F)c4)C3=O)o2)cc1` [Compound A224] was less than 10 µM.
Consider `CCc1ccc(-c2ccc(C=C3SC(=S)N(c4cc(C(=O)O)cc(C(F)(F)F)c4)C3=O)o2)cc1` [Compound A225], for which the IC50 fell in the range of 11 to 40 µM.
Turning to `CCCCOc1ccc(-c2ccc(C=C3SC(=S)N(c4cccc(C(=O)O)c4)C3=O)o2)cc1` [Compound A226], the IC50 was greater than 41 µM.
The same measure for `CCCCOc1ccc(-c2ccc(C=C3SC(=S)N(c4cc(C(=O)O)ccc4F)C3=O)o2)cc1` [Compound A227]: 11 to 40 µM; for `CS(=O)(=O)c1ccc(-c2ccc(C=C3SC(=S)N(c4cccc(C(=O)O)c4)C3=O)o2)cc1` [Compound A228]: less than 10 µM; for `CS(=O)(=O)c1ccc(-c2ccc(C=C3SC(=S)N(c4cc(C(=O)O)ccc4F)C3=O)o2)cc1` [Compound A229]: 11 to 40 µM.
The value for `O=C(O)c1cc(C(=O)O)cc(N2C(=O)C(=Cc3ccc(-c4ccccc4Cl)o3)SC2=S)c1` [Compound A230] was less than 10 µM.
The same measure for `O=C(O)c1cc(C(=O)O)cc(N2C(=O)C(=Cc3ccc(-c4ccccc4F)o3)SC2=S)c1` [Compound A231]: greater than 41 µM; for `O=C(O)c1cc(C(=O)O)cc(N2C(=O)C(=Cc3ccc(-c4ccc(Cl)cc4)o3)SC2=S)c1` [Compound A232]: 11 to 40 µM.
As for `CCc1ccc(-c2ccc(C=C3SC(=S)N(c4cc(C(=O)O)cc(C(=O)O)c4)C3=O)o2)cc1` [Compound A233], the IC50 was less than 10 µM.
The value for `Cc1ccccc1-c1ccc(C=C2SC(=S)N(c3cc(C(=O)O)cc(C(F)(F)F)c3)C2=O)o1` [Compound A234] was less than 10 µM; that for `Cc1ccccc1-c1ccc(C=C2SC(=S)N(c3cc(C(=O)O)cc(C(=O)O)c3)C2=O)o1` [Compound A235] was less than 10 µM.
In the case of `CSc1cccc(-c2ccc(C=C3SC(=S)N(c4cccc(C(=O)O)c4)C3=O)o2)c1` [Compound A236], the IC50 was less than 10 µM.
The same measure for `CSc1cccc(-c2ccc(C=C3SC(=S)N(c4cc(C(=O)O)ccc4F)C3=O)o2)c1` [Compound A237]: less than 10 µM.
The value for `CSc1ccc(-c2ccc(C=C3SC(=S)N(c4cccc(C(=O)O)c4)C3=O)o2)cc1` [Compound A238] was less than 10 µM; that for `CSc1ccc(-c2ccc(C=C3SC(=S)N(c4cc(C(=O)O)ccc4F)C3=O)o2)cc1` [Compound A239] was less than 10 µM; that for `CC(C)Oc1ccc(-c2ccc(C=C3SC(=S)N(c4cccc(C(=O)O)c4)C3=O)o2)cc1` [Compound A240] was less than 10 µM.
The value for `CC(C)Oc1ccc(-c2ccc(C=C3SC(=S)N(c4cc(C(=O)O)ccc4F)C3=O)o2)cc1` [Compound A241] was less than 10 µM.
As to `Cc1ccc(-c2cccc(C=C3SC(=S)N(c4cccc(C(=O)O)c4)C3=O)c2)cc1` [Compound A242], the IC50 lay in the range of 11 to 40 µM.
Regarding `Cc1ccc(-c2cccc(C=C3SC(=S)N(c4cc(C(=O)O)ccc4F)C3=O)c2)cc1` [Compound A243], the IC50 was less than 10 µM.
The same measure for `O=C(O)c1cccc(N2C(=O)C(=Cc3ccc(-c4ccccc4-c4ccccc4)o3)SC2=S)c1` [Compound A244]: less than 10 µM; for `O=C(O)c1ccc(F)c(N2C(=O)C(=Cc3ccc(-c4ccccc4-c4ccccc4)o3)SC2=S)c1` [Compound A245]: less than 10 µM; for `Cc1ccc(-c2ccc(C=C3SC(=S)N(c4cccc(C(=O)O)c4)C3=O)cc2)cc1` [Compound A246]: less than 10 µM.
The value for `Cc1ccc(-c2ccc(C=C3SC(=S)N(c4cc(C(=O)O)ccc4F)C3=O)cc2)cc1` [Compound A247] was 11 to 40 µM; that for `Cc1ccc(-c2ccc(C=C3SC(=S)N(c4cc(C(=O)O)cc(C(F)(F)F)c4)C3=O)cc2)cc1` [Compound A248] was less than 10 µM.
On to `CCc1ccccc1-c1ccc(C=C2SC(=S)N(c3cccc(C(=O)O)c3)C2=O)o1` [Compound A249], for which the IC50 was less than 10 µM.
The same measure for `CCc1ccccc1-c1ccc(C=C2SC(=S)N(c3cc(C(=O)O)ccc3F)C2=O)o1` [Compound A250]: less than 10 µM.
The value for `O=C(O)c1cccc(N2C(=O)C(=Cc3nc(-c4ccccc4)cs3)SC2=S)c1` [Compound A251] was 11 to 40 µM.
